The results in this text go back to ChEMBL document CHEMBL3351890, “Azapropellanes with anti-influenza a virus activity” (ACS Med Chem Lett, 2014).

Series [1] relates to Influenza A virus. The experiment in a line: Antiviral activity against Influenza A virus A/PR/8/34 (H1N1) infected in MDCK cells assessed as inhibition of virus-induced cytopathic effect. The series is classed as functional, organism-based. The following applies: A/Puerto Rico/8/1934(H1N1). A general note: Cytopathic effects are the visible damage that an infection or toxin causes in cultured cells.

The test system of series [2] is Influenza A virus. The experiment in a line: Antiviral activity against Influenza A virus A/PR/8/34 (H1N1) infected in MDCK cells assessed as cell viability by MTS assay. The note with it: A/Puerto Rico/8/1934(H1N1). The series is classed as functional, organism-based.
A short description of series [3]: Antiviral activity against Influenza A virus A/HK/7/87 (H3N2) infected in MDCK cells assessed as inhibition of virus-induced cytopathic effect. The series is classed as functional, cell-based, Influenza A virus (A/Hong Kong/7/1987(H3N2)).
Series [4] can be described thus: Antiviral activity against Influenza A virus A/HK/7/87 (H3N2) infected in MDCK cells assessed as cell viability by MTS assay. Format: functional, cell-based, Influenza A virus (A/Hong Kong/7/1987(H3N2)). Background: Tetrazolium dyes change colour on reduction, which living cells bring about.
The nature of series [5]: Cytotoxicity against MDCK cells assessed as cell morphology by microscopical examination. The series is classed as cell-based, Canis lupus familiaris. The following applies: dog.
The nature of series [6]: Cytotoxicity against MDCK cells assessed as cell viability after 72 hrs by MTS assay. The note with it: dog. The series is classed as cell-based, Canis lupus familiaris.
Series [7] concerns the target Matrix protein 2 (Influenza A virus) (UniProt P06821). The experiment in a line: Inhibition of influenza A virus wild type M2 proton channel expressed in Xenopus oocytes at 100 uM for 2 mins by two-electrode voltage clamp analysis. The series is classed as cell-based. In general terms: In two-electrode clamp one electrode senses voltage and the other passes current.

Chain of Matrix protein 2 (Influenza A virus) (P06821 whole entry): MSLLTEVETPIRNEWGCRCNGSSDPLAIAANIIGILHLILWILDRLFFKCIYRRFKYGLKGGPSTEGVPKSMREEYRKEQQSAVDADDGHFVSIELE

Regarding `C1=CC[C@]23CCC[C@@]2(C1)CNC3`, the half-maximal effective concentration (EC50) (as a rule, the midpoint of the concentration-response curve) in the series on Influenza A virus [1] was 70 µM; with Influenza A virus [2], 56 µM; in series [3], more than 100 µM; in series [4], more than 100 µM. In series [5], the MCC is more than 100 µM. The half-maximal cytotoxic concentration (CC50) (usually the concentration at which the toxic effect on the cells reaches its halfway point) at 72 h in series [6] was more than 100 µM.

As to `C=C1CC23CC=CCC2(CNC3)C1` (stereo not given), the 50% effective concentration (EC50) in the series on Influenza A virus [1] was 45 µM; in the series with Influenza A virus [2] it was 43 µM; in series [3], more than 100 µM; in series [4], more than 100 µM. Moreover, the inhibition (usually the share of the control response that was lost under treatment) in series [7] came out at 14.9%. Also, the MCC in series [5] is more than 100 µM. Also, the half-maximal cytotoxic concentration (CC50) at 72 h in series [6] is more than 100 µM.

As for `C1=CC2C3C4C5C=CC4C24CNCC54C13`, the values for the EC50 (in the series on Influenza A virus [1]; in series [3]) were 16 µM and 14 µM, respectively. The MCC in series [5] is more than 100 µM. The CC50 at 72 h in series [6] is more than 100 µM.

On to `N=C(N)N1CC23CCCC2(CCC3)C1` (stereo not given), for which the EC50 (in the series with Influenza A virus [1]; in the series on Influenza A virus [2]; in series [3]; in series [4]) was more than 100 µM throughout. In series [5], the MCC was 54 µM. Also, the CC50 at 72 h in series [6] came out at 100 µM.

Consider `C=C1CC23CC(=C)CC2(C1)CN(C(=N)N)C3` (stereo not given), for which the EC50 (with Influenza A virus [1]; in the series on Influenza A virus [2]; in series [3]; in series [4]) was more than 100 µM each time. Further, the MCC in series [5] amounted to 16 µM. The CC50 at 72 h in series [6] amounted to 20 µM.

For `CC1CC23CNCC2(C1)CC(C)C3` (stereo not given), the concentration for a half-maximal effect (EC50) is 24 µM in the series on Influenza A virus [1], 20 µM in the series with Influenza A virus [2], more than 100 µM in series [3] and more than 100 µM in series [4]. The compound also had an inhibition in series [7] of 58.7%. For the same compound, in series [5], the MCC is more than 100 µM. The CC50 at 72 h in series [6] is more than 100 µM.

As to `C1=CC[C@]23CCCC[C@@]2(C1)CNC3`, the concentration for a half-maximal effect (EC50) in the series on Influenza A virus [1] was 30 µM; in the series with Influenza A virus [2], 14 µM; in series [3], more than 100 µM; in series [4], more than 100 µM. Besides, in series [7], the inhibition was found to be 19.1%. In series [5], the MCC was more than 100 µM. Also, the CC50 at 72 h in series [6] is more than 100 µM.

For `C1CC[C@]23CCCC[C@@]2(C1)CNC3`, the half-maximal effective concentration (EC50) in the series with Influenza A virus [1] was 5.9 µM; in the series with Influenza A virus [2], 13 µM; in series [3], more than 100 µM; in series [4], more than 100 µM. For the same compound, in series [5], the MCC is more than 100 µM. In addition, the CC50 at 72 h in series [6] is more than 100 µM.

`C1=CC[C@]23CC=CC[C@@]2(C1)CNC3`: the EC50 with Influenza A virus [1] was 38 µM; in the series with Influenza A virus [2], 30 µM; in series [3] it was more than 100 µM; in series [4] it was more than 100 µM. Further, the MCC in series [5] is more than 100 µM. Also, the half-maximal cytotoxic concentration (CC50) at 72 h in series [6] is more than 100 µM.

Regarding `C=C1CC23CCCC2(CNC3)C1` (stereo not given), the EC50 (in the series with Influenza A virus [1]; in the series on Influenza A virus [2]; in series [3]; in series [4]) was more than 100 µM in each case. In series [7], this compound registered an inhibition of 29.9%. In addition, in series [5], the MCC is more than 100 µM. Further, the CC50 at 72 h in series [6] was more than 100 µM.

Take `CC1=C(C)C[C@]23CNC[C@@]2(C1)CC(C)=C(C)C3`: the concentration giving a half-maximal response (EC50) in the series with Influenza A virus [1] is 7 µM; in the series with Influenza A virus [2] it was 5.6 µM; in series [3], more than 100 µM; in series [4], more than 100 µM. The MCC in series [5] is more than 100 µM. In addition, the CC50 at 72 h in series [6] is more than 100 µM.

`C1CC23CCCC2(C1)CNC3` (stereo not given): the EC50 (with Influenza A virus [1]; in the series with Influenza A virus [2]; in series [3]; in series [4]) was more than 100 µM in each case. The inhibition in series [7] worked out at 47.1%. In addition, in series [5], the MCC is more than 100 µM. For the same compound, the CC50 at 72 h in series [6] is more than 100 µM.

For the compound `CC1CC23CC(C)CC2(C1)CN(C(=N)N)C3` (stereo not given), the 50% effective concentration (EC50) in the series with Influenza A virus [1] is 2 µM; in the series on Influenza A virus [2], 1.6 µM; in series [3] it was more than 100 µM; in series [4], more than 100 µM. The compound further yielded an inhibition in series [7] of 8.8%. Further, the MCC in series [5] was more than 100 µM. The CC50 at 72 h in series [6] is more than 20 µM.

For `N=C(N)N1C[C@@]23CC=CC[C@@]2(CCC3)C1`, the concentration giving a half-maximal response (EC50) (in the series with Influenza A virus [1]; in the series on Influenza A virus [2]; in series [3]; in series [4]) was more than 100 µM throughout. Moreover, the MCC in series [5] is more than 100 µM. In addition, the CC50 at 72 h in series [6] was more than 100 µM.

On to `C=C1CC23CNCC2(C1)CC(=C)C3` (stereo not given), for which the EC50 is less than 0.8 µM with Influenza A virus [1], less than 0.8 µM in the series on Influenza A virus [2], more than 100 µM in series [3] and more than 100 µM in series [4]. This compound also gave an inhibition in series [7] of 29.3%. Moreover, in series [5], the MCC is more than 100 µM. Besides, the half-maximal cytotoxic concentration (CC50) at 72 h in series [6] was more than 100 µM.
